By IC50 is commonly meant the concentration at which inhibition is half-maximal.

Experimental findings from patent US10428080B2, “TBK/IKK inhibitor compounds and uses thereof” (Merck Patent GmbH, priority 2015, dated 2019) are described below.

One assay concerns the target T1, TBK1 (Homo sapiens, UniProt Q9UHD2).
T1 sequence (Q9UHD2 1-729): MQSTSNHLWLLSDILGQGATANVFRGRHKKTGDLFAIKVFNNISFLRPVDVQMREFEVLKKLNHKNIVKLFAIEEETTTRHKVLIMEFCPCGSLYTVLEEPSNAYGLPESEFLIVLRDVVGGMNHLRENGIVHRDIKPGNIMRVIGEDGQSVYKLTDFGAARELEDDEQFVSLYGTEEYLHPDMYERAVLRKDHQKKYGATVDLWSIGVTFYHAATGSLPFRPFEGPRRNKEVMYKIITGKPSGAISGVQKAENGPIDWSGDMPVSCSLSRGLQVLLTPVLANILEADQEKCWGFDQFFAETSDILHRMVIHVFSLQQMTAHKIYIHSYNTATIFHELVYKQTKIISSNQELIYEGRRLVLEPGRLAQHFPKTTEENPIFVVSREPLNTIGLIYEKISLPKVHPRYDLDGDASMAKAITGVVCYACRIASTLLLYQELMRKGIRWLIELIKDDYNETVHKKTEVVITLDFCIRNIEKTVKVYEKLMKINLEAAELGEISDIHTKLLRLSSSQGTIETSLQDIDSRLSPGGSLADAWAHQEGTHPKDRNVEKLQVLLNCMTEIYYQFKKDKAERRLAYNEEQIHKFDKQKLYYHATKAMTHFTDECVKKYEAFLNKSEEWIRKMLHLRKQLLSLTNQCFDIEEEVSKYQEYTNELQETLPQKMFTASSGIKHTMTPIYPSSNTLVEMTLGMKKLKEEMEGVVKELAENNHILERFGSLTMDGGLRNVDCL
Description: TBK Biochemical Assay. The following applies: read-out: TBK1 IC50. In outline:
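Caliper LabChip mobility-shift readout of substrate and product after 90 min of TBK1 reaction at 25° C and stop-buffer addition. Compounds tested in 1:4 serial dilution over 10 points from 30 uM final at 1% DMSO; staurosporine 10 uM final defines full inhibition.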

The target of the next assay is T2, IKKε (Homo sapiens, UniProt Q14164).
T2 sequence (Q14164 1-716): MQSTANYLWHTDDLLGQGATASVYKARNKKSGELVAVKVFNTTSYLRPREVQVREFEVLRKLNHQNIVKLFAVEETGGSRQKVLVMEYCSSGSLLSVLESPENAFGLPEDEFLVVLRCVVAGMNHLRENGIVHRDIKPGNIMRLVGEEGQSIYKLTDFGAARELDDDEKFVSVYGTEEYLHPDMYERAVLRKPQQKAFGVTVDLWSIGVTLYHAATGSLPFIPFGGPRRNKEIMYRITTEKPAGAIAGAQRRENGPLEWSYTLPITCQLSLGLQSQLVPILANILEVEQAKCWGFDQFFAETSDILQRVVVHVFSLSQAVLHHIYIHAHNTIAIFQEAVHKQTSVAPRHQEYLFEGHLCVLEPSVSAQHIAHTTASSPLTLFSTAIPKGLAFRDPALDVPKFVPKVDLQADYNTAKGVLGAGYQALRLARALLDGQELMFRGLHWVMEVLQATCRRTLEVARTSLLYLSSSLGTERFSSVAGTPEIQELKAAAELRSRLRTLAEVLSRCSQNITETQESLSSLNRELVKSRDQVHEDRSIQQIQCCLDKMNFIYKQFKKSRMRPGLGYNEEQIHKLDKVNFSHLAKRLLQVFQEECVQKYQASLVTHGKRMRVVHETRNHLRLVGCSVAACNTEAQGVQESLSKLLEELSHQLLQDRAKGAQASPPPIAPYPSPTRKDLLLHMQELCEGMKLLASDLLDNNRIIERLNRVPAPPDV
Description: IKKe Biochemical Assay. The settings on record: read-out: IKKε IC50. In outline:
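Activity was measured as mobility-shift separation of phosphorylated from unphosphorylated substrate on a LabChip EZ Reader. Compound was titrated from 30 uM final in 10 points, 1:4 steps, with 1% DMSO, and enzyme plus substrate reacted 90 min at 25° C before stop buffer. Control wells held 10 uM staurosporine.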

Assay [1] concerns phosphorylation of the IRF-3 protein in MDA-MB-468 cells. Nature of the assay: pIRF3 immunocytochemistry cell based assay. The settings on record: Homo sapiens; MDA-MB-468 cells, Poly(I:C) stimulation; read-out: pIRF3 IC50. How it is done: The purpose of the pIRF3 immunocytochemistry cell based assay was to identify small molecules which modulates TBK/IKKe kinase activity through on target substrate phosphorylation of the IRF-3 protein. On the first day of the experiment, MDA-MB-468 cells were plated in 384 well, black, clear-bottom, Poly D lysine coated plates at a density of 5000 cells/well in 45 ul of complete DMEM and allowed to adhere overnight. On the second day compounds were added to cells at a starting concentration of 10 uM with a serial dilution of 3-fold for a total of 10 points. The cells were incubated for 1 hr at 37° C. Cells were then stimulated with Poly(I:C) at a final concentration of 10 ug/ml, and were incubated for 2 hr at 37° C. Following the incubation, media was removed from the wells and the cells were fixed with 4% PFA for 15 min at RT. Cells were washed at least 3 times with PBS, and then permeabilized with ice-cold methanol for 10 min at RT. The washing step was repeated and the cells were then blocked using 10% goat serum/1% BSA, made up in PBS and allowed to incubate at RT for 1 hr. The cells were washed again and then treated with an anti-pIRF3 antibody at 4° C. overnight (1:250 dilution of Abcam ab76493 in PBS containing 1% BSA). On the third day the primary antibody was washed off and pIRF3 was detected by adding the secondary antibody conjugated to AlexaFluor488 (1:200 dilution of secondary antibody in PBS containing 1% BSA) for 1 hr at RT. Cells were washed and then counterstained with PI/RNase staining buffer for 15 min at RT and read on the Acumen Explorer laser scanning cytometer. The percentage of phosphorylation of the IRF-3 protein was calculated using the following algorithm, a modified version of the mean half width intensity (pIRF3 staining)/(PI staining or # of cells)×100%). IC50 curves were generated using the Genedata software.

For the compound `COc1cc(C(=O)NC2C3COCC32)cnc1-c1cc2nccc(-c3ccc(N4CC[C@H](F)C4)c(C#N)c3)c2o1` (stereo in doubt) [Compound 465, 6-[7-[3-cyano-4-(3-fluoropyrrolidin-1-yl)phenyl]furo[3,2-b]pyridin-2-yl]-5-methoxy-N-[3-oxabicyclo[3.1.0]hexan-6-yl]pyridine-3-carboxamide], the IC50 on TBK1 was less than 100 nM; at IKKε, less than 100 nM; in assay [1], 100 to 1000 nM.

Consider `COc1cc(C(=O)N2C[C@H]3C[C@@H]2CN3C)ccc1-c1cc2nccc(-c3ccc(OC4CCOCC4)c(C#N)c3)c2o1` (stereo in doubt) [Compound 507], for which the IC50 (at TBK1; on IKKε; in assay [1]) was less than 100 nM throughout.

Take `COc1cc(C(=O)N2CC3CC2CO3)ccc1-c1cc2nccc(-c3ccc(OC4CCOCC4)c(C#N)c3)c2o1` (stereo not drawn) [Compound 1, 5-{2-[2-Methoxy-4-(2-oxa-5-aza-bicyclo[2.2.1]heptane-5-carbonyl)-phenyl]-furo[3,2-b]pyridin-7-yl}-2-(tetrahydro-pyran-4-yloxy)-benzonitrile]: the IC50 (on TBK1; at IKKε; in assay [1]) was less than 100 nM each time.

For `COc1cc(C(=O)N2CCC3(CCO3)CC2)ccc1-c1cc2nccc(-c3ccc(OC4CCOCC4)c(C#N)c3)c2o1` [Compound 3, 5-{2-[2-Methoxy-4-(1-oxa-7-aza-spiro[3.5]nonane-7-carbonyl)-phenyl]-furo[3,2-b]pyridin-7-yl}-2-(tetrahydro-pyran-4-yloxy)-benzonitrile], the IC50 at TBK1 is less than 100 nM; at IKKε, less than 100 nM; in assay [1], 100 to 1000 nM.

In the case of `COc1cc(C(=O)N2CCC(CO)CC2)ccc1-c1cc2nccc(-c3ccc(OC4CCOCC4)c(C#N)c3)c2o1` [Compound 5, 5-{2-[4-(4-Hydroxymethyl-piperidine-1-carbonyl)-2-methoxy-phenyl]-furo[3,2-b]pyridin-7-yl}-2-(tetrahydro-pyran-4-yloxy)-benzonitrile], the IC50 (at TBK1; on IKKε; in assay [1]) was less than 100 nM throughout.

Regarding `COc1cc(C(=O)N(C)C)ccc1-c1cc2nccc(-c3ccc(NC4CCOC4)c(C#N)c3)c2o1` (stereo not drawn) [Compound 7], the IC50 was less than 100 nM at TBK1, less than 100 nM at IKKε and 100 to 1000 nM in assay [1].

As to `COc1cc(C(=O)N2CC(N3CCOCC3)C2)ccc1-c1cc2nccc(-c3ccc(OC4CCOCC4)c(C#N)c3)c2o1` [Compound 8], the IC50 (at TBK1; at IKKε; in assay [1]) was less than 100 nM in each case.

In the case of `COc1cc(C(=O)N2CC3CN(C)CC3C2)ccc1-c1cc2nccc(-c3ccc(OC4CCOCC4)c(C#N)c3)c2o1` (stereo not drawn) [Compound 9, 5-{2-[2-Methoxy-4-(5-methyl-hexahydro-pyrrolo[3,4-c]pyrrole-2-carbonyl)-phenyl]-furo[3,2-b]pyridin-7-yl}-2-(tetrahydro-pyran-4-yloxy)-benzonitrile], the IC50 (on TBK1; on IKKε; in assay [1]) was less than 100 nM in each case.

With `COc1cc(C(=O)N2CCCCC2CO)ccc1-c1cc2nccc(-c3ccc(OC4CCOCC4)c(C#N)c3)c2o1` (stereo not drawn) [Compound 10], the IC50 (on TBK1; on IKKε; in assay [1]) was less than 100 nM in each case.

With `COc1cc(C(=O)NC2CCOCC2O)ccc1-c1cc2nccc(-c3ccc(OC4CCOCC4)c(C#N)c3)c2o1` (stereo not drawn) [Compound 11, 4-{7-[3-Cyano-4-(tetrahydro-pyran-4-yloxy)-phenyl]-furo[3,2-b]pyridin-2-yl}-N-(3-hydroxy-tetrahydro-pyran-4-yl)-3-methoxy-benzamide], the IC50 on TBK1 was less than 100 nM; at IKKε it was less than 100 nM; in assay [1], 100 to 1000 nM.

In the case of `COc1cc(C(=O)N2CCN(CCO)CC2)ccc1-c1cc2nccc(-c3ccc(OC4CCOCC4)c(C#N)c3)c2o1` [Compound 13, 5-(2-{4-[4-(2-Hydroxy-ethyl)-piperazine-1-carbonyl]-2-methoxy-phenyl}-furo[3,2-b]pyridin-7-yl)-2-(tetrahydro-pyran-4-yloxy)-benzonitrile], the IC50 (at TBK1; at IKKε; in assay [1]) was less than 100 nM each time.

With `COc1cc(C(=O)N2CC[C@H](O)C2)ccc1-c1cc2nccc(-c3ccc(OC4CCOCC4)c(C#N)c3)c2o1` [Compound 14, 5-{2-[4-((S)-3-Hydroxy-pyrrolidine-1-carbonyl)-2-methoxy-phenyl]-furo[3,2-b]pyridin-7-yl}-2-(tetrahydro-pyran-4-yloxy)-benzonitrile], the concentration for half-maximal inhibition (IC50) (at TBK1; on IKKε; in assay [1]) was less than 100 nM throughout.

Turning to `COc1cc(C(=O)N2CCN(C)CC2)ccc1-c1cc2nccc(-c3ccc(OC4CCOCC4)c(C#N)c3)c2o1` [Compound 15, 5-{2-[2-Methoxy-4-(4-methyl-piperazine-1-carbonyl)-phenyl]-furo[3,2-b]pyridin-7-yl}-2-(tetrahydro-pyran-4-yloxy)-benzonitrile], the IC50 (at TBK1; at IKKε; in assay [1]) was less than 100 nM throughout.

For `COc1cc(C(=O)N2CCN(C)CC2)ccc1-c1cc2nccc(-c3ccc(N4CC[C@H](F)C4)c(C#N)c3)c2o1` [Compound 16, 2-((S)-3-Fluoro-pyrrolidin-1-yl)-5-{2-[2-methoxy-4-(4-methyl-piperazine-1-carbonyl)-phenyl]-furo[3,2-b]pyridin-7-yl}-benzonitrile], the IC50 at TBK1 was less than 100 nM; on IKKε it was less than 100 nM; in assay [1], 100 to 1000 nM.

Turning to `COc1cc(C(=O)N2CC[C@@H](F)C2)ccc1-c1cc2nccc(-c3ccc(OC4CCOCC4)c(C#N)c3)c2o1` [Compound 17, 5-{2-[4-((R)-3-Fluoro-pyrrolidine-1-carbonyl)-2-methoxy-phenyl]-furo[3,2-b]pyridin-7-yl}-2-(tetrahydro-pyran-4-yloxy)-benzonitrile], the figures for the IC50 (on TBK1; at IKKε; in assay [1]) were less than 100 nM, less than 100 nM and 100 to 1000 nM, respectively.
